{
  "source": "patent US20240158348A1",
  "about": "“HERBICIDAL CYCLIC AMIDES N-SUBSTITUTED WITH A HALOALKYLSULFONYLANILIDE GROUP” (FMC Corporation, priority 2021, published 2024)",
  "assay_type_in_all_cases": "in vivo",
  "key": {"[1]": {"tested_on": "foxtail, giant (giant foxtail, Setaria faberi)", "test": "Test C postemergence, giant foxtail"}, "[2]": {"tested_on": "galium (catchweed bedstraw, Galium aparine)", "test": "Test C postemergence, galium"}, "[3]": {"tested_on": "soybean (Glycine max)", "test": "Test C postemergence, soybean", "details": "visual injury, 0 to 100 scale (0 no effect, 100 complete control)"}, "[4]": {"tested_on": "oat, wild (wild oat, Avena fatua)", "test": "Test C postemergence, wild oat"}, "[5]": {"tested_on": "oat, wild (wild oat, Avena fatua)", "test": "Test C preemergence, wild oat", "details": "0 is no effect, 100 is complete control", "outline": "(§1)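 Herbicidal effect was estimated visually on a 0–100 scale 10 or 12 days after spraying. Formulation: non-phytotoxic solvent mixture with surfactant. Timing: directed soil spray after sowing, or postemergence on seedlings bearing one or two leaves.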"}, "[6]": {"tested_on": "wheat (Triticum aestivum)", "test": "Test C preemergence, wheat", "details": "0 is no effect, 100 is complete control"}, "[7]": {"tested_on": "foxtail, giant (giant foxtail, Setaria faberi)", "test": "Test C preemergence, giant foxtail", "details": "0 is no effect, 100 is complete control", "outline": "as §1"}, "[8]": {"tested_on": "corn (Zea mays)", "test": "Test C preemergence, corn", "details": "0 is no effect, 100 is complete control", "outline": "(§2)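 Plants grown in a sand and loam soil blend received the formulated test chemicals either as a preemergence soil-directed spray or postemergence at 2 to 10 cm height. After 10 or 12 greenhouse days, injury was assessed visually, with 100 meaning complete control.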"}, "[9]": {"tested_on": "ragweed (common ragweed, Ambrosia artemisiifolia)", "test": "Test C postemergence, ragweed", "details": "visual injury, 0 to 100 scale (0 no effect, 100 complete control)", "outline": "as §1"}, "[10]": {"tested_on": "pigweed, palmer (palmer amaranth, Amaranthus palmeri)", "test": "Test C preemergence, palmer amaranth", "details": "0 is no effect, 100 is complete control", "outline": "as §1"}, "[11]": {"tested_on": "ragweed (common ragweed, Ambrosia artemisiifolia)", "test": "Test C preemergence, ragweed", "details": "0 is no effect, 100 is complete control", "outline": "as §2"}, "[12]": {"tested_on": "blackgrass (Alopecurus myosuroides)", "test": "Test C postemergence, blackgrass", "details": "31 g ai/ha Postemergence; visual injury, 0 to 100 scale (0 no effect, 100 complete control)", "outline": "as §1"}, "[13]": {"tested_on": "pigweed, palmer (palmer amaranth, Amaranthus palmeri)", "test": "Test C postemergence, palmer amaranth", "details": "visual injury, 0 to 100 scale (0 no effect, 100 complete control)", "outline": "as §1"}, "[14]": {"tested_on": "sedge, umbrella (small-flower umbrella sedge, Cyperus difformis)", "test": "Test D flooded paddy test, umbrella sedge", "set-up": "key: 0 = no effect, 100 = complete control", "details": "250 g ai/ha, Flood; applied to paddy water at 2-leaf stage; visual rating after 13 days; scale 0 (no effect) to 100 (complete control)", "outline": "(§3)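 Pots holding 2-leaf-stage plants were flooded 3 cm deep and dosed via the water, which stayed at that level. After 13 greenhouse days, injury was scored visually against untreated controls, 0 (none) to 100 (complete control); a dash marks no test result.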"}, "[15]": {"tested_on": "wheat (Triticum aestivum)", "test": "Test C postemergence, wheat", "details": "visual injury, 0 to 100 scale (0 no effect, 100 complete control)", "outline": "as §1"}, "[16]": {"tested_on": "soybean (Glycine max)", "test": "Test C preemergence, soybean", "details": "0 is no effect, 100 is complete control", "outline": "as §1"}, "[17]": {"tested_on": "kochia (Bassia scoparia)", "test": "Test C preemergence, kochia", "details": "0 is no effect, 100 is complete control", "outline": "as §1"}, "[18]": {"tested_on": "blackgrass (Alopecurus myosuroides)", "test": "Test C postemergence, blackgrass", "details": "125 g ai/ha Postemergence; 0 is no effect, 100 is complete control"}, "[19]": {"tested_on": "horseweed (Erigeron canadensis)", "test": "Test C postemergence, horseweed", "outline": "as §1"}, "[20]": {"tested_on": "goosegrass (Eleusine indica)", "test": "Test C preemergence, goosegrass", "details": "0 is no effect, 100 is complete control", "outline": "as §2"}, "[21]": {"tested_on": "barnyardgrass (Echinochloa crusgalli)", "test": "Test D flooded paddy test, barnyardgrass", "set-up": "key: 0 = no effect, 100 = complete control", "details": "250 g ai/ha, Flood; applied to paddy water at 2-leaf stage; visual rating after 13 days; scale 0 (no effect) to 100 (complete control)", "outline": "as §3"}, "[22]": {"tested_on": "kochia (Bassia scoparia)", "test": "Test C postemergence, kochia", "outline": "as §1"}, "[23]": {"tested_on": "blackgrass (Alopecurus myosuroides)", "test": "Test C preemergence, blackgrass", "details": "0 is no effect, 100 is complete control", "outline": "as §1"}, "[24]": {"tested_on": "rice (Oryza sativa)", "test": "Test D flooded paddy test, rice", "set-up": "key: 0 = no effect, 100 = complete control", "details": "250 g ai/ha, Flood; applied to paddy water at 2-leaf stage; visual rating after 13 days; scale 0 (no effect) to 100 (complete control)", "outline": "as §3"}, "[25]": {"tested_on": "corn (Zea mays)", "test": "Test C postemergence, corn"}, "[26]": {"tested_on": "ryegrass, Italian (Italian ryegrass, Lolium multiflorum)", "test": "Test C preemergence, Italian ryegrass", "details": "0 is no effect, 100 is complete control", "outline": "as §1"}, "[27]": {"tested_on": "ducksalad (Heteranthera limosa)", "test": "Test D flooded paddy test, ducksalad", "set-up": "key: 0 = no effect, 100 = complete control", "details": "250 g ai/ha, Flood; applied to paddy water at 2-leaf stage; visual rating after 13 days; scale 0 (no effect) to 100 (complete control)", "outline": "as §3"}, "[28]": {"tested_on": "goosegrass (Eleusine indica)", "test": "Test C postemergence, goosegrass", "outline": "as §1"}, "[29]": {"tested_on": "ryegrass, Italian (Italian ryegrass, Lolium multiflorum)", "test": "Test C postemergence, Italian ryegrass", "details": "visual injury, 0 to 100 scale (0 no effect, 100 complete control)", "outline": "as §1"}, "[30]": {"details": "31 g ai/ha Postemergence, visual injury, 0 to 100 scale (0 no effect, 100 complete control)"}, "[31]": {"details": "125 g ai/ha Postemergence, 0 is no effect, 100 is complete control"}},
  "data": [
    {"smiles": "Cc1c(N2CCCC(OC3CC3)C2=O)cc(N(COC(=O)C(C)(C)C)S(=O)(=O)C(F)(F)F)c(C)c1F", "note": "(stereo not shown) [Compound 37]", "values": [
      {"measurement": "Foxtail, Giant plant response rating", "setting": "[1]; [30]", "value": 10},
      {"measurement": "Plant response rating (0 to 100 scale), Foxtail, Giant", "setting": "[1]; [31]", "value": 80},
      {"measurement": "Galium plant response rating", "setting": "[2]; [30]", "value": 60},
      {"measurement": "Plant response rating (0 to 100 scale), Galium", "setting": "[2]; [31]", "value": 90},
      {"measurement": "Soybean plant response rating", "setting": "[3]; 31 g ai/ha Postemergence", "value": 60},
      {"measurement": "Soybean plant response rating", "setting": "[3]; 125 g ai/ha Postemergence", "value": 70},
      {"measurement": "Oat, Wild plant response rating", "setting": "[4]; [30]", "value": 20},
      {"measurement": "Plant response rating (0 to 100 scale), Oat, Wild", "setting": "[4]; [31]", "value": 70},
      {"measurement": "Plant response rating (0 to 100 scale), Oat, Wild", "setting": "[5]; 31 g ai/ha Preemergence", "value": 20},
      {"measurement": "Plant response rating (0 to 100 scale), Oat, Wild", "setting": "[5]; 125 g ai/ha Preemergence", "value": 20},
      {"measurement": "Plant response rating (0 to 100 scale), Wheat", "setting": "[6]; 31 g ai/ha Preemergence", "value": 0},
      {"measurement": "Plant response rating (0 to 100 scale), Wheat", "setting": "[6]; 125 g ai/ha Preemergence", "value": 20},
      {"measurement": "Plant response rating (0 to 100 scale), Foxtail, Giant", "setting": "[7]; 31 g ai/ha Preemergence", "value": 20},
      {"measurement": "Plant response rating (0 to 100 scale), Foxtail, Giant", "setting": "[7]; 125 g ai/ha Preemergence", "value": 90},
      {"measurement": "Plant response rating (0 to 100 scale), Corn", "setting": "[8]; 31 g ai/ha Preemergence", "value": 0},
      {"measurement": "Plant response rating (0 to 100 scale), Corn", "setting": "[8]; 125 g ai/ha Preemergence", "value": 10},
      {"measurement": "Ragweed plant response rating", "setting": "[9]; 31 g ai/ha Postemergence", "value": 60},
      {"measurement": "Ragweed plant response rating", "setting": "[9]; 125 g ai/ha Postemergence", "value": 90},
      {"measurement": "Plant response rating (0 to 100 scale), Pigweed, Palmer", "setting": "[10]; 31 g ai/ha Preemergence", "value": 50},
      {"measurement": "Plant response rating (0 to 100 scale), Pigweed, Palmer", "setting": "[10]; 125 g ai/ha Preemergence", "value": 90},
      {"measurement": "Plant response rating (0 to 100 scale), Ragweed", "setting": "[11]; 31 g ai/ha Preemergence", "value": 0},
      {"measurement": "Plant response rating (0 to 100 scale), Ragweed", "setting": "[11]; 125 g ai/ha Preemergence", "value": 90},
      {"measurement": "Blackgrass plant response rating", "setting": "[12]", "value": 0},
      {"measurement": "Pigweed, Palmer plant response rating", "setting": "[13]; 31 g ai/ha Postemergence", "value": 0},
      {"measurement": "Pigweed, Palmer plant response rating", "setting": "[13]; 125 g ai/ha Postemergence", "value": 30},
      {"measurement": "Plant response rating, Sedge, Umbrella", "setting": "[14]", "value": 95},
      {"measurement": "Wheat plant response rating", "setting": "[15]; 31 g ai/ha Postemergence", "value": 10},
      {"measurement": "Wheat plant response rating", "setting": "[15]; 125 g ai/ha Postemergence", "value": 60},
      {"measurement": "Plant response rating (0 to 100 scale), Soybean", "setting": "[16]; 31 g ai/ha Preemergence", "value": 0},
      {"measurement": "Plant response rating (0 to 100 scale), Soybean", "setting": "[16]; 125 g ai/ha Preemergence", "value": 30},
      {"measurement": "Plant response rating (0 to 100 scale), Kochia", "setting": "[17]; 31 g ai/ha Preemergence", "value": 0},
      {"measurement": "Plant response rating (0 to 100 scale), Kochia", "setting": "[17]; 125 g ai/ha Preemergence", "value": 90},
      {"measurement": "Plant response rating (0 to 100 scale), Blackgrass", "setting": "[18]", "value": 60},
      {"measurement": "Horseweed plant response rating", "setting": "[19]; [30]", "value": 80},
      {"measurement": "Plant response rating (0 to 100 scale), Horseweed", "setting": "[19]; [31]", "value": 80},
      {"measurement": "Plant response rating (0 to 100 scale), Goosegrass", "setting": "[20]; 31 g ai/ha Preemergence", "value": 50},
      {"measurement": "Plant response rating (0 to 100 scale), Goosegrass", "setting": "[20]; 125 g ai/ha Preemergence", "value": 100},
      {"measurement": "Plant response rating, Barnyardgrass", "setting": "[21]", "value": 90},
      {"measurement": "Kochia plant response rating", "setting": "[22]; [30]", "value": 50},
      {"measurement": "Plant response rating (0 to 100 scale), Kochia", "setting": "[22]; [31]", "value": 70},
      {"measurement": "Plant response rating (0 to 100 scale), Blackgrass", "setting": "[23]; 31 g ai/ha Preemergence", "value": 10},
      {"measurement": "Plant response rating (0 to 100 scale), Blackgrass", "setting": "[23]; 125 g ai/ha Preemergence", "value": 60},
      {"measurement": "Plant response rating, Rice", "setting": "[24]", "value": 0},
      {"measurement": "Corn plant response rating", "setting": "[25]; [30]", "value": 10},
      {"measurement": "Plant response rating (0 to 100 scale), Corn", "setting": "[25]; [31]", "value": 90},
      {"measurement": "Plant response rating (0 to 100 scale), Ryegrass, Italian", "setting": "[26]; 31 g ai/ha Preemergence", "value": 30},
      {"measurement": "Plant response rating (0 to 100 scale), Ryegrass, Italian", "setting": "[26]; 125 g ai/ha Preemergence", "value": 70},
      {"measurement": "Plant response rating, Ducksalad", "setting": "[27]", "value": 70},
      {"measurement": "Goosegrass plant response rating", "setting": "[28]; [30]", "value": 0},
      {"measurement": "Plant response rating (0 to 100 scale), Goosegrass", "setting": "[28]; [31]", "value": 90},
      {"measurement": "Ryegrass, Italian plant response rating", "setting": "[29]; 31 g ai/ha Postemergence", "value": 0},
      {"measurement": "Ryegrass, Italian plant response rating", "setting": "[29]; 125 g ai/ha Postemergence", "value": 60}
    ]}
  ]
}
